According to US12213959B2, “Use of 3-O-sulfamoyloxy-7β-methyl-d-homo-6-oxaestra-1,3,5(10),8(9)-tetraen-17a-one to treat breast cancer” (priority 2018, dated 2025):
Several values for one entry are separate records, joined by “and”; a condition that tells them apart may be missing. Equal values may be shown once. Marks after values point to notes of the source that are not given here.

Test system: breast tumours in FBV/N female mice, transgenic for HER-2/neu
Test: Antitumour activity on breast tumours of HER-2/neu transgenic mice
Assay type: in vivo
Details: for antitumour activity compared with Tamoxifen: FVB mice transgenic for HER-2/neu with breast tumours; for Average tumor volume, % of change to the initial value / Average total tumour volume, % of change to the initial value: Day 28 vs Day 0; for Absolute number of new tumours / frequency of stabilisations of tumours present at initiation of treatment: end of observation
Experimental: The study was carried out on female FVB mice transgenic for HER-2/neu of the conventional category, the strain being obtained from the mouse bank Charles River Laboratories (Italy).
Duration of the administration course was 27-28 days.
The control groups were given the olive oil (placebo).
The macroscopically detectable tumor nodes were measured in the animals once per week during the weighing process.

[1] = medicament 2 mg/kg daily i.g., Day 0
[2] = medicament 2 mg/kg daily i.g., Day 7
[3] = medicament 2 mg/kg daily i.g., Day 14
[4] = medicament 2 mg/kg daily i.g., Day 21
[5] = medicament 2 mg/kg daily i.g., Day 28
[6] = medicament 20 mg/kg daily i.g., Day 0
[7] = medicament 20 mg/kg daily i.g., Day 7
[8] = medicament 20 mg/kg daily i.g., Day 14
[9] = medicament 20 mg/kg daily i.g., Day 21
[10] = medicament 20 mg/kg daily i.g., Day 28

With `C[C@H]1Oc2cc(OS(N)(=O)=O)ccc2C2=C1[C@@H]1CCCC(=O)[C@@]1(C)CC2` [medicament, 3-O-sulfamoyloxy-7β-methyl-O-homo-6-oxaestra-1,3,5(10),8(9)-tetraen] the “antitumour activity compared with Tamoxifen” value was “not lower than that of the reference durg, Tamoxifen”, the “antitumour activity compared with Tamoxifen” value (listed as agent) was “more effectively than clinically used Tamoxifen” and the “antitumour effect on the model” value (dose range 2.0, 20.0 and 100.0 mg/kg) was “no pronounced antitumour effect”. For the same compound, the “Average volume of new tumours at the end of the observation period” value (medicament 2 mg/kg) was 0.33 cm^3, the “effect on frequency of stabilisations or volume of newly developing tumours” value (medicament 2.0 mg/kg) was “had no effect” and the “relative change in the total volume of tumours versus control values” (medicament 2.0 mg/kg) was “greater than the control values”. The “Average volume of tumors existing at the beginning of the experiment (M)” value (from here on “Average volume of tumors existing”) [1] was 0.27 cm^3, the “Relative change of the average total volume of tumours to that of Day −1 (M)” value (“Relative change … (M)” below) [1] was 0% and the “Average total volume of tumours in mice (M)” value (medicament 2.0 mg/kg daily i.g., Day 0) was 1.24 cm^3. The “Average volume of tumors existing” value [2] was 0.42 cm^3, the “Relative change … (M)” value [2] was 59% and the “Average total volume of tumours in mice (M)” value (medicament 2.0 mg/kg daily i.g., Day 7) was 1.91 cm^3. For the same compound, the “Average volume of tumors existing” value [3] was 0.6 cm^3, the “Relative change … (M)” value [3] was 131% and the “Average total volume of tumours in mice (M)” value (medicament 2.0 mg/kg daily i.g., Day 14) was 2.71 cm^3. For the same compound, the “Average volume of tumors existing” value [4] was 0.77 cm^3, the “Relative change … (M)” value [4] was 210% and the “Average total volume of tumours in mice (M)” value (medicament 2.0 mg/kg daily i.g., Day 21) was 3.50* cm^3. The “Average volume of tumors existing” value [5] was 1.11 cm^3, the “Relative change … (M)” value [5] was 347*** % and the “Average total volume of tumours in mice (M)” value (medicament 2.0 mg/kg daily i.g., Day 28) was 5.04 cm^3. For the same compound, the “Average tumor volume, % of change to the initial value” (medicament 2 mg/kg daily i.g.) was 311%, the “Average total tumour volume, % of change to the initial value” (medicament 2.0 mg/kg daily i.g.) was 307% and the “Absolute number of new tumours” value (medicament 2 mg/kg) was 30. The “frequency of stabilisations of tumours present at initiation of treatment” value (medicament 2 mg/kg) was 5%, the “TGI (average tumor volume)” value (medicament 2 mg/kg, vs Control-3, Day 0) was 29% and the “TGI (average total tumour volume)” value (medicament 2.0 mg/kg, vs Control-3, Day 0) was 45%. For the same compound, the “TGI (average tumor volume)” value (medicament 2 mg/kg, vs Control-3, Day 7) was 16%, the “TGI (average total tumour volume)” value (medicament 2.0 mg/kg, vs Control-3, Day 7) was 37% and the “TGI (average tumor volume)” value (medicament 2 mg/kg, vs Control-3, Day 14) was 14%. The “TGI (average total tumour volume)” value (medicament 2.0 mg/kg, vs Control-3, Day 14) was 35%, the “TGI (average tumor volume)” value (medicament 2 mg/kg, vs Control-3, Day 21) was 9% and the “TGI (average total tumour volume)” value (medicament 2.0 mg/kg, vs Control-3, Day 21) was 31%. The “TGI (average tumor volume)” value (medicament 2 mg/kg, vs Control-3, Day 28) was −14%, the “TGI (average total tumour volume)” value (medicament 2.0 mg/kg, vs Control-3, Day 28) was 13% and the “Average volume of new tumours at the end of the observation period” value (medicament 20 mg/kg) was 0.19±0.04 cm^3 and 0.19 cm^3. For the same compound, the “Average total volume of tumours in mice (M)” value [6] was 0.41 cm^3, the “Average volume of tumors existing” value [6] was 0.18 cm^3 and the “Relative change … (M)” value (medicament 20.0 mg/kg daily i.g., Day 0) was 0%. The “Average total volume of tumours in mice (M)” value [7] was 0.62 cm^3, the “Average volume of tumors existing” value [7] was 0.28 cm^3 and the “Relative change … (M)” value (medicament 20.0 mg/kg daily i.g., Day 7) was 55%. For the same compound, the “Average total volume of tumours in mice (M)” value [8] was 0.94 cm^3, the “Average volume of tumors existing” value [8] was 0.43 cm^3 and the “Relative change … (M)” value (medicament 20.0 mg/kg daily i.g., Day 14) was 145%. For the same compound, the “Average total volume of tumours in mice (M)” value [9] was 1.18 cm^3, the “Average volume of tumors existing” value [9] was 0.54 cm^3 and the “Relative change … (M)” value (medicament 20.0 mg/kg daily i.g., Day 21) was 209** %. The “Average total volume of tumours in mice (M)” value [10] was 1.22 cm^3, the “Average volume of tumors existing” value [10] was 0.55 cm^3 and the “Relative change … (M)” value (medicament 20.0 mg/kg daily i.g., Day 28) was 227*** %. For the same compound, the “Average total tumour volume, % of change to the initial value” (medicament 20 mg/kg daily i.g.) was 198%, the “Average tumor volume, % of change to the initial value” (medicament 20 mg/kg daily i.g.) was 206% and the “Absolute number of new tumours” value (medicament 20 mg/kg) was 22. For the same compound, the “frequency of stabilisations of tumours present at initiation of treatment” value (medicament 20 mg/kg) was 9%.
